Assay results taken from patent publication US10954228B2 (NATIONAL INSTITUTES OF HEALTH, UNITED STATES DEPARTMENT OF …, priority 2016, dated 2021).

Legend:
MiaPaCa2 cells = assay: cell-based HT lactate assay by colorimetric/fluorometric detection (cellular inhibition of lactate production)
Experimental: This example describes a cell-based metabolite assay by colorimetric/fluorometric detection employed in the characterization of a compound of formula (I) in an embodiment of the invention.
Cell-based HT Lactate assay is a miniaturized Biovision Lactate Colorimetric/Fluorometric Assay Kit (Cat #K607-100). The assay is roughly a 3.5 hour assay run in a 1536 plate format. Cell number optimization should be run for each cell line to achieve an optimal number in which lactate production equals roughly 90% of the standard curve range. Cell number per well optimization has been performed with the following cell lines: MiaPaCa2—500 cells/well, SNU398—500 cells/well, and P493—500 cells/well.

Human LDHA = Human LDHA (Homo sapiens (Human), UniProt P00338); assay: human LDHA primary biochemical assay; conditions: biochemical LDHA inhibitory activity, assay of Example 1; activity level classes defined in nM
How it was run: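 Human LDHA at 2 nM with 0.06 mM NADH and 0.2 mM sodium pyruvate in 200 mM Tris HCl pH 7.4, 100 μM EDTA, 0.01% TWEEN-20 (final). NADH consumption coupled to resazurin/diaphorase (0.037 mM; 0.133 mg/mL); inhibition read by fluorescence.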

[1] = Homo sapiens, MIA PaCa-2, assay of Example 6

SMILES | IC50 (MiaPaCa2 cells; [1]) | IC50 (Human LDHA) | IC50 (MiaPaCa2 cells; assay of Example 6)
NS(=O)(=O)c1ccc(Cc2c(-c3ccc(F)c(-c4ccc(Cl)cc4)c3)nn(-c3nc(C(=O)O)cs3)c2CC2CC2)cc1F [Compound 139, 2-(3-(4′-chloro-6-fluoro-[1,1′-biphenyl]-3-yl)-5-(cyclopropylmethyl)-4-(3-fluoro-4-sulfamoylbenzyl)-1H-pyrazol-1-yl)thiazole-4-carboxylic acid] | < 1000 nM | < 100 nM | 
Cc1cccc(-c2cc(-c3nn(-c4nc(C(=O)O)cs4)c(CC4CC4)c3Cc3ccc(S(N)(=O)=O)c(F)c3)ccc2F)c1 [Compound 141] |  | < 100 nM | < 1000 nM
NS(=O)(=O)c1ccc(Cc2c(-c3ccc(F)c(C4=CCCCC4)c3)nn(-c3nc(C(=O)O)cs3)c2CC2CC2)cc1F [Compound 146, 2-(5-(cyclopropylmethyl)-3-(6-fluoro-2′,3′,4′,5′-tetrahydro-[1,1′-biphenyl]-3-yl)-4-(3-fluoro-4-sulfamoylbenzyl)-1H-pyrazol-1-yl)thiazole-4-carboxylic acid] | < 1000 nM | < 100 nM | 
COc1cc(OC)cc(-c2cc(-c3nn(-c4nc(C(=O)O)cs4)c(CC4CC4)c3Cc3ccc(S(N)(=O)=O)c(F)c3)ccc2F)c1 [Compound 153, 2-(5-(cyclopropylmethyl)-3-(6-fluoro-3′,5′-dimethoxy-[1,1′-biphenyl]-3-yl)-4-(3-fluoro-4-sulfamoylbenzyl)-1H-pyrazol-1-yl)thiazole-4-carboxylic acid] | < 1000 nM | < 100 nM | 

The next lines start with results.

IC50 (MiaPaCa2 cells; [1]) | IC50 (Human LDHA) | SMILES | IC50 (MiaPaCa2 cells; assay of Example 6)
< 1000 nM | < 100 nM | NS(=O)(=O)c1ccc(Cc2c(-c3ccc(F)c(-c4ccc5c(c4)CCCC5)c3)nn(-c3nc(C(=O)O)cs3)c2CC2CC2)cc1F [Compound 143, 2-(5-(cyclopropylmethyl)-3-(4-fluoro-3-(5,6,7,8-tetrahydronaphthalen-2-yl)phenyl)-4-(3-fluoro-4-sulfamoylbenzyl)-1H-pyrazol-1-yl)thiazole-4-carboxylic acid] | 
< 1000 nM | < 100 nM | NS(=O)(=O)c1ccc(Cc2c(-c3ccc(F)c(-c4ccc(Cl)c(F)c4)c3)nn(-c3nc(C(=O)O)cs3)c2CC2CC2)cc1F [Compound 144, 2-(3-(4′-chloro-3′,6-difluoro-[1,1′-biphenyl]-3-yl)-5-(cyclopropylmethyl)-4-(3-fluoro-4-sulfamoylbenzyl)-1H-pyrazol-1-yl)thiazole-4-carboxylic acid] | 
< 1000 nM | < 100 nM | NS(=O)(=O)c1ccc(Cc2c(-c3ccc(F)c(-c4cccc(Cl)c4)c3)nn(-c3nc(C(=O)O)cs3)c2CC2CC2)cc1F [Compound 149, 2-(3-(3′-chloro-6-fluoro-[1,1′-biphenyl]-3-yl)-5-(cyclopropylmethyl)-4-(3-fluoro-4-sulfamoylbenzyl)-1H-pyrazol-1-yl)thiazole-4-carboxylic acid] | 
< 1000 nM | < 100 nM | COc1ccc(-c2cc(-c3nn(-c4nc(C(=O)O)cs4)c(CC4CC4)c3Cc3ccc(S(N)(=O)=O)c(F)c3)ccc2F)cc1C [Compound 150, 2-(5-(cyclopropylmethyl)-3-(6-fluoro-4′-methoxy-3′-methyl-[1,1′-biphenyl]-3-yl)-4-(3-fluoro-4-sulfamoylbenzyl)-1H-pyrazol-1-yl)thiazole-4-carboxylic acid] | 
< 1000 nM | 100 to 1000 nM | Cc1cc(C)cc(-c2cc(-c3nn(-c4nc(C(=O)O)cs4)c(CC4CC4)c3Cc3ccc(S(N)(=O)=O)c(F)c3)ccc2F)c1 [Compound 151, 2-(5-(cyclopropylmethyl)-3-(6-fluoro-3′,5′-dimethyl-[1,1′-biphenyl]-3-yl)-4-(3-fluoro-4-sulfamoylbenzyl)-1H-pyrazol-1-yl)thiazole-4-carboxylic acid] | 
< 1000 nM | < 100 nM | NS(=O)(=O)c1ccc(Cc2c(-c3ccc(F)c(-c4ccc5c(c4)CCC5)c3)nn(-c3nc(C(=O)O)cs3)c2CC2CC2)cc1F [Compound 155, 2-(5-(cyclopropylmethyl)-3-(3-(2,3-dihydro-1H-inden-5-yl)-4-fluorophenyl)-4-(3-fluoro-4-sulfamoylbenzyl)-1H-pyrazol-1-yl)thiazole-4-carboxylic acid] | 
